Experimental data published in ChEMBL document CHEMBL1129021, “Synthesis and biological evaluation of the L-enantiomer of 2-deoxy-5-ethyl-4-thiouridine” (Bioorg Med Chem Lett, 1996).

How the values were obtained:
Assay type in all cases: functional, organism-based
Human betaherpesvirus 5 = assay: Compound was evaluated for the antiviral activity against human cytomegalo virus(HCMV)
Human alphaherpesvirus 3 = assay: Compound was evaluated for the antiviral activity against varicella zoster virus(VZV)
[1] = tested on: Human immunodeficiency virus 1; assay: Compound was evaluated for the antiviral activity against human immunodeficiency virus-1(HIV-1)
Human alphaherpesvirus 2 = assay: Compound was evaluated for the antiviral activity against herpes simplex virus-2(HSV-2)

Row | IC50 (Human betaherpesvirus 5) [µM] | IC50 (Human alphaherpesvirus 3) [µM] | IC50 [1] [µM] | IC50 (Human alphaherpesvirus 2) [µM] | SMILES
1 | > 100 | > 40 | > 50 | > 50 | CCc1cn([C@@H]2C[C@@H](O)[C@H](CO)S2)c(=O)[nH]c1=O
2 | > 100 | 0.76 | > 100 | 2.3 | CCc1cn([C@H]2C[C@H](O)[C@@H](CO)S2)c(=O)[nH]c1=O
